Read-outs that look alike come from different tables or passages of the source.
Experiment: Rat pharmacokinetics, plasma levels by sandwich-based ELISA
Type: in vivo
Protocol: To initially characterize the pharmacokinetics of KAI-1678 in rats, male rats were administered KAI-1678 at doses of 100 and 1,000 mcg/rat (˜300 and ˜3,000 mcg/kg) as an IV bolus injection via the tail vein. Blood samples were withdrawn periodically for up to two hours following the injection for plasma analysis of KAI-1678 levels. There were three and two animals in the 100 and 1,000 mcg dose groups, respectively, and there was consistency in KAI-1678 plasma concentrations between animals in each dose group.
In the experiment shown in FIG. 29, male rats were administered KAI-1678 as a subcutaneous bolus injection (200 microL into the left hindleg) at doses of 25 or 250 mcg/animal (approximately 80 and 800 mcg/kg, respectively). Blood samples were taken at various time points over two hours after administration of the compound to determine plasma concentrations of KAI-1678. There were three and four animals in the 25 and 250 mcg/animal dose groups, respectively, and the KAI-1678 plasma concentration measurements were consistent between animals in each dose group. Cmax occurred within 10 minutes after injection and increased in a dose-proportional manner over the two doses tested.
In the experiment shown in FIG. 30, male rats were administered KAI-1678 as a continuous subcutaneous infusion for 2 hours at doses of 19 and 190 mcg/kg/hr. Blood samples were taken at various time points throughout the infusion and for 1 hour after the end of infusion to determine plasma concentrations of KAI-1678. There were two animals per dose group and the plasma KAI-1678 concentration measurements were consistent between animals in each dose group. At the lower dose rate (19 mcg/kg/hr), plasma concentrations reached steady state (˜3 ng/mL) by 60 minutes and remained relatively constant throughout the rest of the infusion. […] At both dose rates, plasma concentrations of KAI-1678 dropped quickly after the end of infusion although compound was still detectable at both dose levels one hour after the end of infusion.

Q: With Ac-EAVSLKPTGGYGRKKRRQRRR-NH2 [KAI-1678] as the substance, how does the “Clearance from systemic circulation” value (intravenous bolus) read?
A: rapidly cleared from systemic circulation

Q: And the level at 1 h (male, rat, plasma, sc, 19 ug/kg/hr, subcutaneous infusion 19 mcg/kg/hr, by 60 minutes, read-out: Steady state plasma concentration)?
A: ~3 ng/mL

Q: And the Tmax (male, rat, plasma, sc, subcutaneous bolus, read-out: Time of maximum plasma concentration (converted))?
A: ~10 min

Q: And the half-life (rat, in vivo, iv, 300 ug/kg, IV bolus ~300 mcg/kg, preliminary, read-out: Terminal half-life)?
A: ~38 min

Q: What about the half-life (rat, in vivo, iv, IV bolus ~300 mcg/kg, preliminary, read-out: Terminal half-life) of the same substance?
A: ~38 min

Q: What about the half-life (rat, in vivo, iv, IV bolus ~3,000 mcg/kg, preliminary, read-out: Terminal half-life) of the same substance?
A: ~66 min

Q: And the half-life (rat, in vivo, iv, intravenous bolus, read-out: Terminal half-life)?
A: ~50 min

Q: And the half-life (rat, in vivo, sc, 800 ug/kg, subcutaneous bolus approximately 80 and 800 mcg/kg, read-out: Terminal half-life)?
A: ~35 min

Q: What about the half-life (rat, in vivo, sc, subcutaneous infusion, read-out: Half-life after end of infusion) of the same substance?
A: ~30 min

Q: And the Cmax (rat, in vivo, sc, subcutaneous infusion 190 mcg/kg/hr for 2 hours)?
A: ~60 ng/mL

Q: And the bioavailability (rat, in vivo, sc, subcutaneous route vs intravenous bolus)?
A: ~10%

Q: And the “Dose proportionality of exposure” value (subcutaneous bolus (80, 800 mcg/kg) or infusion (19, 190 mcg/kg/hr))?
A: dose-proportional increases in exposures

Q: And the “Half-life after end of infusion” value (subcutaneous infusion)?
A: ~45 min

Q: And the “Time of maximum plasma concentration” value (subcutaneous infusion)?
A: ~1 h
